Measured values reported in patent US10906899B2, “Bicyclic fused pyrazole derivatives for the treatment of RSV” (GEORGIA STATE UNIVERSITY RESEARCH FOUNDATION, INC., priority 2016, dated 2021).

Tested on: RSV
Assay: Dose-response counterscreen: luciferase reporter virus infection of BEAS-2B cells (EC50)
Assay type: cell-based, respiratory syncytial virus (RSV)
Settings: human respiratory syncytial virus, A series compounds, anti-RSV potency, read-out: Potency Range (EC50 values)

With COc1ccc(-c2cc(=O)[nH]c3c2cnn3-c2ccccc2)cc1OC1CCCC1 [AVG-067, 4-(3-(cyclopentyloxy)-4-methoxyphenyl)-1-phenyl-1H-pyrazolo[3,4-b]pyridine-6(7H)-one] the EC50 was > 20 µM.

Same assay, conditions: human respiratory syncytial virus, B series compounds, read-out: Potency Range (EC50 values)

Cc1c2c(=O)n(-c3nc4ccccc4s3)n(Cc3ccccc3)c2cc(=O)n1Cc1ccnn1C [AVG-102] and Cc1c2c(=O)n(-c3nc4ccccc4s3)n(Cc3ccccc3)c2cc(=O)n1Cc1ccn[nH]1 [AVG-101] fall in the same range of EC50: 1 to 10 µM for the first, 1 to 10 µM for the second.

Compared with Cc1c2c(=O)n(-c3nc4ccccc4s3)n(CC(C)C)c2cc(=O)n1Cc1ccco1 [AVG-070], Cc1c2c(=O)n(-c3nc4ccccc4s3)n(Cc3ccoc3)c2cc(=O)n1Cc1ccco1 [AVG-123] is higher in EC50: 1 to 10 µM for the first, 10 to 20 µM for the second. The first is the more potent here.

First: Cc1c2c(=O)n(-c3nc4ccccc4s3)n(Cc3ccccc3)c2cc(=O)n1Cc1cc(Cl)ccn1 [AVG-160]
Second: Cc1c2c(=O)n(-c3nc4ccccc4s3)n(Cc3ccccc3)c2cc(=O)n1Cc1cc(Cl)cc(Cl)n1 [AVG-169]
The EC50 of the first is higher: 1 to 10 µM for the first, 0.1 to 1 µM for the second. The second is the more potent here.

First: Cc1c2c(=O)n(-c3nc4ccccc4s3)n(Cc3ccccc3)c2cc(=O)n1Cc1ncccn1 [AVG-090]
Second: Cc1cccc(Cn2c(C)c3c(=O)n(-c4nc5ccccc5s4)n(Cc4ccccc4)c3cc2=O)n1 [AVG-157]
The EC50 of the first is higher: 10 to 20 µM for the first, 0.1 to 1 µM for the second.

First: COc1ccc2sc(-n3c(=O)c4c(C)n(Cc5cccc(Cl)n5)c(=O)cc4n3Cc3ccccc3)nc2c1 [AVG-188]
Second: COc1ccc2nc(-n3c(=O)c4c(C)n(Cc5cccc(Cl)n5)c(=O)cc4n3Cc3ccccc3)sc2c1 [AVG-189]
The EC50 of the first is higher: 0.1 to 1 µM for the first, 0.01 to 0.1 µM for the second. The second is the more potent here.

Cc1c2c(=O)n(-c3ccccn3)n(Cc3ccccc3)c2cc(=O)n1Cc1cccc(Cl)c1 [AVG-128] and Cc1c2c(=O)n(-c3ccccn3)n(Cc3ccccc3)c2cc(=O)n1Cc1cccc(F)c1 [AVG-131] fall in the same range of EC50: 0.1 to 1 µM for the first, 0.1 to 1 µM for the second.

Compared with Cc1c2c(=O)n(-c3nc4ccccc4s3)n(C)c2cc(=O)n1CCN1CCOCC1 [AVG-029], Cc1c2c(=O)n(-c3nc4ccccc4s3)n(Cc3ccccc3)c2cc(=O)n1CC1CCOCC1 [AVG-040] is lower in EC50: > 20 µM for the first, 1 to 10 µM for the second.

Cc1c2c(=O)n(-c3ccccn3)n(Cc3ccccc3)c2cc(=O)n1Cc1cccc(-c2ccccc2)n1 [AVG-229] and Cc1c2c(=O)n(-c3ccccn3)n(Cc3ccccc3)c2cc(=O)n1Cc1ccccc1Cl [AVG-127] fall in the same range of EC50: 0.1 to 1 µM for the first, 0.1 to 1 µM for the second.

Compared with Cc1c2c(=O)n(-c3nc4ccccc4s3)n(Cc3ccccc3)c2cc(=O)n1CC1CCCC(=O)N1 (stereo not shown) [AVG-210], Cc1c2c(=O)n(-c3nc4ccccc4s3)n(Cc3ccccc3)c2cc(=O)n1CC1CCOC1 (stereo not shown) [AVG-075] is lower in EC50: 10 to 20 µM for the first, 1 to 10 µM for the second. The second is the more potent here.

Compared with COc1cccc(Cn2c(C)c3c(=O)n(-c4ccccn4)n(Cc4ccc(OC(C)C)cc4)c3cc2=O)n1 [AVG-253], COc1ccc(Cn2c3cc(=O)n(Cc4cccc(Cl)n4)c(C)c3c(=O)n2-c2ccccn2)cc1 [AVG-233] is lower in EC50: 0.1 to 1 µM for the first, 0.01 to 0.1 µM for the second. The second is the more potent here.

First: Cc1c2c(=O)[nH]n(Cc3ccccc3)c2cc(=O)n1Cc1ccccn1 [AVG-200]
Second: COc1cccc(Cn2c(C)c3c(=O)n(-c4ccccn4)n(Cc4ccccc4)c3cc2=O)c1 [AVG-134]
The EC50 of the first is higher: > 20 µM for the first, 0.1 to 1 µM for the second. The second is the more potent here.

Cc1c2c(=O)n(-c3nc4ccccc4s3)n(Cc3ccncc3)c2cc(=O)n1Cc1ccco1 [AVG-121] and Cc1c2c(=O)n(-c3nc4ccccc4s3)n(Cc3cccnc3)c2cc(=O)n1Cc1ccco1 [AVG-120] fall in the same range of EC50: 1 to 10 µM for the first, 1 to 10 µM for the second.

First: COc1ccccc1Cn1c2cc(=O)n(Cc3cccc(Cl)n3)c(C)c2c(=O)n1-c1nc2ccccc2s1 [AVG-176]
Second: Cc1c2c(=O)n(-c3nc4ccccc4s3)n(Cc3ccccc3)c2cc(=O)n1Cc1cccc(C(C)C)n1 [AVG-159]
The EC50 of the first is higher: 0.1 to 1 µM for the first, 0.01 to 0.1 µM for the second.

Compared with Cc1c2c(=O)n(-c3nc4ccccc4s3)n(Cc3ccccc3)c2cc(=O)n1Cc1cccc(N2CCOCC2)n1 [AVG-228], Cc1c2c(=O)n(-c3nc4ccccc4s3)n(Cc3ccccc3)c2cc(=O)n1Cc1cncc(Cl)n1 [AVG-162] is higher in EC50: 0.1 to 1 µM for the first, 10 to 20 µM for the second.

Compared with Cc1c2c(=O)n(-c3nc4ccccc4s3)n(Cc3ccccc3)c2cc(=O)n1CC1CCN(C)CC1 [AVG-039], Cc1c2c(=O)n(-c3nc4ccccc4s3)n(CC3CCCOC3)c2cc(=O)n1Cc1ccco1 (stereo not shown) [AVG-072] is lower in EC50: 10 to 20 µM for the first, 1 to 10 µM for the second.
